What was measured:
MDA231 cells = assay: Cell proliferation assay (MTT), MDA231 breast cancer cells; format: cell-based, human
Procedure: For cell proliferation assays, cells were grown in 10% FCS culture medium containing various amounts of IFNs and/or sodium stibogluconate in 96 well plates and cultured at 37° C. for 3 or 6 days as indicated. The numbers of viable cells in proliferation assays were determined by MTT assays as described in Phatak et al., J. Immunol. 167, 3391 (2001).

U251 cells = assay: Cell growth assay (MTT), U251 glioma cells; format: cell-based, human; settings: 100 μg/ml, day 6
Procedure: (§1) NIH3T3 (Yi, et al., Blood 85, 87 (1995)), WM9 (Forsberg, et al., Proc. Nat. Acad Sci. USA 90, 393 (1993)), DU145 (Mickey, et al., Cancer Res. 37, 4049 (1977)), LoVo (Drewinko, et al., Cancer Res. 36, 467 (1976)), HEY (Buick, et al., Cancer Res. 45, 3668 (1985)), U251 (Yoshida, et al., Cancer 50, 410 (1982)), A549 (Giard, et al., J. Natl. Cancer Inst. 51, 1417 (1973)) and SK-N-SH (Helson, et al., Cancer Res. 35, 2594 (1975)) cell lines have been described and were cultured in RPMI 1640 supplemented with 10% fetal calf serum (FCS). For measurement of sodium stibogluconate effects on cell growth in vitro, cells were cultured in the absence (−) or presence (+) of various amounts of sodium stibogluconate for 6 days with viable cells quantified by MTT assays (Mosmann, J. Imunol. Methods 65, 55 (1983)). Percentages of growth inhibition by sodium stibogluconate were calculated (+/−×%).

A549 cells = assay: Cell growth assay (MTT), A549 lung cancer cells; format: cell-based, human; settings: 100 μg/ml, day 6
Procedure: as §1

PRL-3 = biological target: T1, PRL-3 (Homo sapiens, UniProt O75365); assay: In vitro PTPase assay, recombinant PRL-3; format: biochemical
T1 construct: cDNAs of human PRL-1, PRL-2 and PRL-3 coding region were derived by RT-PCR from H9 cells; made in house; host or cells: DH5a bacteria (E. coli)
From the text: Sodium stibogluconate, suramin, sodium orth ovanadate and GST fusion protein of SHP-1 have been described previously (Pathak et al., J. Imumol. 167, 3391 (2001)). Meglumine antimonate was obtained from Aventis. cDNAs of human PRL-1, PRL-2 and PRL-3 coding region were derived by RT-PCR from H9 cells (Safai, et al., Lancet 1, 1438 (1984)) and inserted in frame into the pGEX vector. cDNA of PRL-1R86 was generated by recombinant DNA technique using PRL-1 cDNA as template following established procedures (Jiao, et al., Mol. Cell. Biol. 16, 6985 (1996)). GST fusion proteins of the PRL phosphatases were prepared from DH5a bacteria transformed with the pGEX fusion protein constructs as described previously (Yi, et al., Mol. Cell. Biol. 12, 836 (1992)). cDNAs encoding the PRLs tagged at the N-termini with the Flag epitope (Castrucci, et al., J. Virol. 66, 4647 (1992)) were generated via recombinant DNA technique, sequenced to confirm their identities and cloned into the pBabepuro vector (Yang, et al., Blood 91, 3746 (1998)). Anti-Flag monoclonal antibody (M2, Sigma) was purchased from a commercial source. A synthetic phosphotyrosine peptide (Arg-Arg-Leu-Ile-Glu-Asp-Ala-Gle-Tyr-Ala-Ala-Arg-Gly (SEQ ID NO: 3), wherein the tyrosine is phosphorylated; UBI) and DiFMUP (6, 8-difluoro-4-methylumbelliferyl phosphate, Molecular Probes) were purchased as substrates for PTPase assays.
In vitro PTPase assays were used to determine the effects of compounds on recombinant PTPases, following established procedures using a synthetic phosphotyrosine peptide or DiFMUP as the substrate (Pathak et al., J. Imumol. 167, 3391 (2001)). Briefly, individual PTPases (0.1 μg/reaction) in 50 μL of PTPase buffer (50 mM Tris, pH 7.4) were incubated at 22° C. for 10 minutes or as indicated in the absence or presence of inhibitory compounds. Substrates (0.2 mM phosphotyrosine peptide) were then added and allowed to react at 22° C. for 18 hrs. PTPase activity of individual reactions was measured by adding 100 μL of malachite green solution (UBI) and then quantifying the amounts of free phosphate cleaved by the PTPase from the peptide substrate by spectrometry (OD660 nm). PTPase assays using DiFMUP as a substrate were conducted following a previously described procedure (Matter, et al., Biochem. Biophys. Res. Comm. 283, 1061 (2001)). Relative PTPase activities were calculated based on the formula: (PTPase activity in the presence of an inhibitory compound/PTPase activity in the absence of the compound)×100%. To assess the reversibility of PTPase inhibition, GST fusion proteins of the PTPases bound on glutathione beads (Pharmacia) were pre-incubated with cold Tris buffer (50 mM Tris, pH 7.0) or Tris buffer containing the inhibitor at 4° C. for 30 minutes. The beads were then washed three times in cold Tris buffer or not washed prior to subjecting to in vitro PTPase assays.

Stat1 = assay: IFN-alpha-induced Stat1 tyrosine phosphorylation, WiT49-N1 cells; format: cell-based, human
Procedure: For induction of Stat1 tyrosine phosphorylation by IFN-alpha in the absence or presence of sodium stibogluconate, cells grown in 10% FCS RPMI 1640 medium at 37° C. were stimulated with IFN-alpha (50 u/ml) for various time points and treated with or without sodium stibogluconate for 5 minutes prior to termination by lysing the cells in cold lysis buffer (1% NP-40; 50 mM Tris, pH 7.4; 100 mM NaCl; 1 mM EDTA, 10% glycerol, 10 mM sodium molybdic acid and 4 mM AEBSF).
Cell lysates were prepared by lysing cells in cold lysis buffer for 30 min and cleared by centrifuging at 14,000 rpm at 4° C. for 15 min. For SDS-PAGE, cell lysates were mixed with equal volume of 2×SDS-PAGE sample buffer, heated at 90° C. for 5 min and separated in 10% SDS-PAGE gels. Cellular proteins in SDS-PAGE gels were transferred to nitrocellulose membrane (Schleicher & Schuell, Keene, N.H.), blocked in 5% milk, probed with antibodies and detected by using an enhanced chemiluminescence kit (ECL, Amersham, Arlington Heights, Ill.).

T1 sequence (O75365 whole entry): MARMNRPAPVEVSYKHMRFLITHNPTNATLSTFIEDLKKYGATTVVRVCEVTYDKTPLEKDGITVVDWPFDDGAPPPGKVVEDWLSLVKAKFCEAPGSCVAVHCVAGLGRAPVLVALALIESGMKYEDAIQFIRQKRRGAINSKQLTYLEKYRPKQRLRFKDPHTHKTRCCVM

O.O.O.O.O.O.O.O.O.O=C([O-])[C@@H]1[O][Sb]2([O-])([O][Sb]34([OH])[O][C@H]([C@H](O)CO)[C@H]([O]3)[C@H](C(=O)[O-])[O]4)[O][C@H]([C@H](O)CO)[C@@H]1[O]2.[Na+].[Na+].[Na+] [sodium stibogluconate]
killing of MDA231 cells, single agent (MDA231 cells; 50 μg/ml and 100 μg/ml, day 6 culture): killed all cells | IFN-alpha-induced growth inhibition of MDA231 in presence of drug (MDA231 cells; day 6): augmented | cell killing, U251 (U251 cells): near-complete cell killing | cell killing, A549 (A549 cells): near-complete cell killing | inactivation of PRL-3 with prolonged pre-incubation (PRL-3; 10 μg/ml, pre-incubation 30 or 60 minutes): nearly complete inactivation | inhibition of PRL-3 with DiFMUP substrate (PRL-3; DiFMUP, comparable conditions): also detected | reversibility of PRL-3 inhibition by washing (PRL-3; PRL-3 bound to glutathione beads): not relieved by a washing process | IFN-alpha-induced Stat1 tyrosine phosphorylation (Stat1): failed to enhance

Reference: patent publication US20030161893A1, “PTPase inhibitors and methods of using the same” (priority 2001, published 2003)
